The subject of this assay is tps2Δ strains. Kind of assay: Sensitivity towards antifungals, growth curves in liquid medium in microtiter wells (bioscreen C). It counts as cell-based, Saccharomyces cerevisiae. The settings on record: 10^-6 M ketoconazole, 33°C, cells pre-grown to stationary phase, OD 600 nm, after 24 hours. As to the method:
Sensitivity towards the antifungals itraconazole and ketoconazole was tested in microtiter wells using a bioscreen C apparatus (Life sciences, Labsystems) and on solid culture media.
Yeast cells were pre-grown in YPglucose medium till stationary phase. The cells were diluted to a initial optical density of 0.05 OD and 300 µl of cell suspension was added to each well of a microtiter plate. Three µl of the correct stock solution of the compound, dissolved in DMSO, were added to each well. For the control reactions, only DMSO was added. The microtiter plate was placed in the bioscreen C apparatus and were incubated at 33°C or 37°C, with medium intensity shaking (30 seconds shaking per minute). The optical density at 600 nm was measured every 30 min.
The effect of the addition of 10^-7 M Itraconazole and 10^-6 Ketoconazole on the growth curve of prototrophic tps2Δ strain PVD32 and wild type strain PVD23 at 33°C is shown in Figures 3 and 4 respectively.
The effect of different concentrations of itraconazole on the growth at 33°C of the diploid wild type strain (PVD190) and the diploid heterozygous tps2Δ strain PVD191 was tested and the results are presented in Figure 5.

In the case of `CC(=O)N1CCN(c2ccc(OCC3COC(Cn4ccnc4)(c4ccc(Cl)cc4Cl)O3)cc2)CC1` (stereo not shown) [ketoconazole], the effect on growth result is given as “no detectable growth”.

(Values after patent EP1081232A1, “Novel target for antifungals” (K.U. LEUVEN RESEARCH & DEVELOPMENT, priority 1999, dated 2001).)
